Source: paper PMC9544108 (Chemmedchem, 2022)
Numbered stars: 1 amine (or outer) side, 2 acyl side, 3 side chain; on linkers, the order of the positions; unused ones are H or OH. Square brackets hold non-standard residues; d marks the D form. Peptide text beside a SMILES is read from it. γGlu = O=C(O)[C@H](CCC(=O)[*:2])N[*:1]; βAsp = O=C(O)[C@H](CC(=O)[*:2])N[*:1]; Cya = N[C@@H](CS(=O)(=O)O)C(=O)O

How the values were obtained:
Pb-poisoned HT-29 cells [1] = assay: recovery assay of Pb-poisoned cells (crystal violet); type: cell-based, human; conditions: HT-29, Pb(NO3)2 0.2 mM, further 23 h; for viability of Pb-poisoned cells relative to the negative control (recovery): peptide added 1 h later, up to 1 mM (5 equiv.), at least 3 independent experiments; for recovery of Pb-poisoned cells, in words: compound 0.02-1 mM added 1 h later
Method: Human HT‐29 cells were used to investigate the peptides′ detoxification capabilities.[17, 18, 22] Adhered cells were poisoned with Pb(NO3)2 (200 μM) and 1 h later treated with various concentrations of peptides[28] and of the benchmark drugs, ranging from 20 μM to 1 mM that are equal to 0.1–5 equivalents compared with the Pb(II) concentration. After an incubation of 23 h, the cells were washed and quantified with the crystal violet assay.[22, 29] Each experiment included both positive and negative controls, which were either cells left untreated with both metal ions and peptides or only poisoned with Pb(NO3)2, respectively. Each dataset was then compared to the negative control to report the peptide recovery abilities (Figures 3A–B and S2).
LCMS (ESI) Rt = 0.6 min, observed as [M+H]+
HT-29 cells were chosen as a representative human cell-line due to their high Pb sensitivity and as their medium, RPMI-1640, is compatible with Pb(II), inhibiting metal precipitation.
HT-29 cells were grown in 25 mM HEPES RPMI -1640 medium, supplemented with 1% L- […]
37 °C and 5% CO2. 96-well plates were prepared such that every well contain ed 10,000 cells in […]
concentration 0.2 mM). 10 µL of H2O were added to the positive control wells. 60 min after the […]
(which are 0.1, 0.25, 0.5, 1, 2 and 5 equivalents, respectively). To the positive control wells containing no metal and the negative control wells containing metal but no peptides, 10 µL of H2O were added, respectively. Each condition was performed in triplicates. […]
gently shaken (50 rpm) for 20 min. […]
dye was observed and allowed to dry overnight.
Recovery% = A[PepX]−A[blank] × 100% (S4)
A[blank] – absorbance of an empty well
Each experiment was performed on three independent repeats. Values are mean ± SD. […]
control for the recovery). Values are mean ± SD of at least 3 repeats. […]
and 1.0 mM. […] Each condition was […]

HT-29 cells [2] = assay: DCF assay, ROS production; type: cell-based, human; conditions: HT-29, peptide 1 mM, with or without Pb(II) 0.2 mM
Method: ROS production determination in the presence of Pb(II) ions […]
the cells were allowed to adhere overnight.
To all wells but the positive control wells, 5 µL of 2.2 mM Pb(NO3)2 were added (final concentration 0.2 mM). 5 µL of H2O were added to the positive control wells. 1 h after, 5 µL of 8 […]
control wells containing no metal and the negative control wel ls containing metal but no peptide, […]
removed, the wells were washed with PBS , and 50 µL of PBS were added to each well. 6.75 µL of 2',7'-dichlorodihydrofluorescein diacetate (H 2DCF-DA) (2.1 mM in DMSO) were added (final concentration 0.25 mM) and gently mixed. The plates were incubated for an additional 1 h.
Fluorescence was then measured at an excitation of 490 nm and an emission of 520 nm.
ROS production determination in the absence of Pb(II) ions […]
concentrations of 1 mM. To the positive control well s, 5 µL of H2O were added.
The plates were incu bated at 37 °C, and 5% CO2 for additional 23 h, after which the medium was […]

Pb-poisoned HT-29 cells [3] = assay: ICP-MS Pb content of cells and supernatant (mode of action); type: cell-based, human; conditions: for SN/C, ratio of Pb content in ppb in supernatants and cells: ICP-MS, three independent experiments
Method: In order to determine the mode of action of 8, by which it enables to achieve a high recovery of Pb‐poisoned HT‐29 cells, inductively coupled plasma mass spectrometry (ICP‐MS) was employed to determine the Pb content of the Pb‐poisoned cells and their respective supernatant. First, HT‐29 cells were poisoned with Pb(NO3)2 (0.2 mM) and the Pb content in the cells and in the medium was determined after 1 and 24 h.[22] The measurement after 1 h was performed to assess the Pb distribution at the time of peptide addition during the recovery experiment and the one after 24 h to reveal the distribution resulting without intervention. At both times, the fraction of intracellular Pb was low and most of the toxic metal was in the medium (Table S10). […] Next, we added 8 to the cells before and after poisoning them with Pb(II) ions to assess whether 8 prevents Pb(II) ions from entering the cells, expels them from the cells or transforms Pb(II) into a non‐toxic complex locally. […] Since treating Pb‐poisoned cells with 8 enables higher viability, despite the fact that their relative intracellular Pb content is elevated, we hypothesize that Pb crosses the cellular membrane from outside as a membrane permeable, non‐toxic Pb(II)‐8 complex.
Cells with Pb(II) ions only were analyzed after 1 or 24 h incubation with the metal salt as reference values:
To all wells, 10 µL of 2.2 mM Pb(NO3)2 were added (final concentration 0.2 mM) and the cells were incubated at 37 °C, and 5% CO2 for 1 h, after which samples were prepared for analysis by […]
Cells treated with 8 were analyzed in two sets that differed in the order of peptide and metal salt […]
After respective incubation times, the supernatants were homogenized by gently pipetting up and down and 50 µL were transferred and digested with 100 µL HNO3 (70%) for 1 h in a 15 mL tube. […] Pb in the supernatant was then quantified using ICP-MS.
Since the cells are adherent, residual supernatant was removed from each well and the cells were washed with RPMI (3x200 µL). […] Pb in the cells was then quantified using ICP-MS. […]

[4] = Ellman's test, oxidation of thiols to disulfide; type: physicochemical; conditions: 8 100 µM in H2O with 10% 1 M Tris buffer pH 8.0, RT, DTNB 300 µM, absorbance 412 nm
Method: (§1) To examine this, we used the Ellman's test,[43] where 8 was incubated in H2O, and the Ellman's reagent was added at given time points (Figure S9).[22] While 8 was started to be slightly oxidized within the first 2 h and was steadily forming disulfide bonds, after 24 h, roughly 40 % of the thiols were still reduced, enabling metal coordination within the experimental time frame of our in vitro study.
Calibration curve: to a 96-well plate with freshly-prepared solutions of Ac-Cys-OMe (12.5-200 µM) in H2O supplemented with 10% 1 M Tris buffer pH 8.0, a fresh solution of Ellman’s reagent (5,5'-dithiobis-(2-nitrobenzoic acid; DTNB; final concentration of 300 µM in H2O supplemented with 12.5 mM sodium acetate) was added. The absorbance of each well at 412 nm was then determined. The average and standard deviation within six wells containing the same AA concentration were calculated and linearly plotted using Origin software .
Seven 96-well plates were prepared identically with fresh solutions of 8 (100 µM) in H2O supplemented with 10% 1 M Tris buffer pH 8.0, where each condition is replicated in 3 wells. […] The absorbance of each well at 412 nm was then determined , and the concentration of free thiol per well was calculated according to the cal ibration curve. For each time frame, the average and standard deviation were calculated. […]

[5] = type: in vitro ADME; conditions: human blood serum (Sigma Aldrich), 100 µM peptide, 37 °C, aliquots from 0 min up to 48 h, precipitation with CH3CN:H2O 1:1, LCMS
Method: as §1
9 Stability in human blood serum
A freshly prepared solution of 8 (in H2O) was added to the human blood serum (HBS, purchased from Sigma Aldrich) to reach a final peptide concentration of 100 µM and a volume of 1 mL.
Samples were pipetted carefully up and down three times and incubated at 37 °C. Aliquots (50 µL) were taken periodically, starting from the addition of the serum (0 min) and continuing after 1 h up to 48 h. Aliquots were poured into a mixture of CH3CN:H2O (1:1; 200 µL) to precipitate the HBS proteins. The samples were cooled on ice for 30 min and centrifuged at 4’4 00 rpm for 10 min. The supernatant was analyzed by LCMS.
Figure S10. Stability of 8 in human blood serum.

HT-29 cells [6] = conditions: HT-29, 0.02-1.0 mM, 23 h, crystal violet, no Pb
Method: We then tested the effect of 8 and 9 alone on cell viability compared with the two benchmark drugs.
96-well plates were prepared such that every well contained 10,000 HT-29 cells in 100 µL
medium, and the cells were allowed to adhere for 24 h.
To all wells but the positive control wells, 10 µL of each solution of the examined peptides (0.24,
and 1.0 mM. To the positive control wells, 10 µL of H 2O were added. Each condition was
performed in triplicates. The plates were incubated at 37 °C, and 5% CO2 for 23 h, after which the
medium was removed, the wells were washed with H2O, and 50 µL of crystal violet solution[10]
(500 mg crystal violet powder in 20 mL CH3OH and 80 mL H2O) were added to each well. The
plates were gently shaken (50 rpm) for 20 min. The plates were then washed with H 2O until no
more unbound dye was observed and allowed to dry overnight. 100 µL of CH3OH were added to
each well, and the plates were gently shaken (50 rpm) for 20 min, after which their absorbance
The toxicity of each concentration of a peptide was calculated according to Equation S5:
𝑇𝑜𝑥𝑖𝑐𝑖𝑡𝑦% = 𝐴[𝑃𝑒𝑝𝑋]−𝐴[𝑏𝑙𝑎𝑛𝑘] × 100% (S5)
A[PepX] – absorbance of well in the presence of X mM of peptide
A[POS] – absorbance of well that contains no peptides

Row | Compound | viability of Pb-poisoned cells relative to the negative control (recovery) (Pb-poisoned HT-29 cells [1]) | effect of compound alone on cell viability, in words (HT-29 cells [6]) | recovery of Pb-poisoned cells, in words (Pb-poisoned HT-29 cells [1]) | also measured
1 | NC(=O)C[C@@H]1NC(=O)CNC(=O)[C@H](CS)NC(=O)CC[C@@H](C(=O)O)NC(=O)[C@H](CC(N)=O)NC(=O)CNC(=O)[C@H](CS)NC(=O)CC[C@@H](C(=O)O)NC1=O [peptide 8] (cyclo(CGN[γGlu]CGN[γGlu])) | approximately 2.5 times | positively affect cell viability | – | oxidative stress (ROS) compared with untreated cells, in words (HT-29 cells [2]): decreased the oxidative stress compared to untreated cells; supernatant-to-cells ratio of Pb compared with cells not treated with peptide, in words (Pb-poisoned HT-29 cells [3]; 8 added pre- or post-poisoning): reduced by approximately half; SN/C, ratio of Pb content in ppb in supernatants and cells (Pb-poisoned HT-29 cells [3]; condition 3: HT-29 poisoned with 0.2 mM Pb(NO3)2 1 h, then 1 mM 8, further 23 h): 56.3 ± 27.5; SN/C, ratio of Pb content in ppb in supernatants and cells (Pb-poisoned HT-29 cells [3]; condition 4: HT-29 given 1 mM 8 for 1 h, then 0.2 mM Pb(NO3)2, further 23 h): 43.3 ± 10.23; time within which oxidation started [4]: ≤ 2 h; thiols still reduced ([4]; after 24 h, 3 wells): roughly 40%; time stable in human blood serum [5]: at least 48 h
2 | C[C@@H]1NC(=O)CNC(=O)[C@H](CS)NC(=O)C[C@@H](C(=O)O)NC(=O)[C@H](C)NC(=O)CNC(=O)[C@H](CS)NC(=O)C[C@@H](C(=O)O)NC1=O [peptide 5] (cyclo(A[βAsp]CGA[βAsp]CG)) | – | – | least active one | –
3 | O=C(O)CN(CCN(CC(=O)O)CC(=O)O)CC(=O)O [EDTA, ethylenediaminetetraacetic acid, reference compound] | – | slight toxicity | – | –
4 | O=C1CC[C@@H](C(=O)O)NC(=O)[C@H](CS(=O)(=O)O)NC(=O)CNC(=O)[C@H](CS)NC(=O)CC[C@@H](C(=O)O)NC(=O)[C@H](CS(=O)(=O)O)NC(=O)CNC(=O)[C@H](CS)N1 [peptide 9] (cyclo(CG[Cya][γGlu]CG[Cya][γGlu])) | approximately 2.5 times | no toxicity at all | – | –
5 | C[C@@H]1NC(=O)CNC(=O)[C@H](CS)NC(=O)CC[C@@H](C(=O)O)NC(=O)[C@H](C)NC(=O)CNC(=O)[C@H](CS)NC(=O)CC[C@@H](C(=O)O)NC1=O [peptide 2] (cyclo(A[γGlu]CGA[γGlu]CG)) | – | – | enhanced viability of cells treated with 1 mM of 2 compared with lin2 | –
